Measurements reported in US12059427B2, “Treatments for cachexia” (YINUOKE MEDICINE SCIENCE AND TECHNOLOGY COMPANY LTD., priority 2018, dated 2024).
“Also recorded” adds a separate entry of the source.

Assays:
[1] = tested on: cachectic Balb/c mice injected with C26 tumor cells; assay: Body weight of cachectic mice (C26 cachexia mouse model); type: in vivo
[2] = tested on: cachectic Balb/c mice injected with C26 tumor cells; assay: Kaplan-Meier survival analysis of cachectic mice (C26 model); type: in vivo, mouse
[3] = 0.3 mg Cytarabine, 0.1 mg Ketorolac or combination (0.3 mg + 0.1 mg) in PBS s.c. on three consecutive days (1 cycle), 8 days observation, vs untreated
[4] = ~50 day period, two 3-day/one-injection-per-day cycles s.c., 0.3 mg Cytarabine, 0.1 mg Ketorolac or combination vs PBS

SMILES: O=C(c1ccccc1)c1ccc2n1CC[C@H]2C(=O)O [(R)-Ketorolac]
- body weight of cachectic mice ([1]; 0.05 mg orally, three consecutive days per cycle, 6 days/2 cycles, vs PBS): reverse body weight drop
- body weight of cachectic mice ([1]; 0.05 mg orally, three consecutive days per cycle, 6 days/2 cycles, vs PBS, listed as (R)-ketorolac): regained body weight after initiation of the treatment and maintained stabilized body weight during the treatment
- survival (Kaplan-Meier) ([2]; two cycles of daily oral administration, 40 day period, vs PBS vehicle): prolong survival of cachectic mice
- survival (Kaplan-Meier) ([2]; two cycles of daily oral administration, 40 day period, vs PBS vehicle, listed as (R)-ketorolac): significant efficacy as a single agent increasing the survival of cachectic mice

SMILES: Nc1ccn([C@@H]2O[C@H](CO)[C@@H](O)[C@@H]2O)c(=O)n1 [Cytarabine, 1-(β-D-Arabinofuranosyl)cytosine]
- body weight of cachectic mice [1, 3]: the body weight drop eventually reverses for all treated mice; also recorded: reverse body weight drop in cachectic mice
- transient weight loss after treatment ([1]; days 0-5 after start of treatment, 0.3 mg Cytarabine alone vs combination with 0.1 mg Ketorolac, s.c.): transient weight loss seen on days 0-5
- survival (Kaplan-Meier) [2, 4]: highly significant increase in survival; also recorded: prolong survival of cachectic mice

SMILES: O=C(c1ccccc1)c1ccc2n1CCC2C(=O)O (stereo not drawn) [Ketorolac, Ketorolac tromethamine]
- body weight of cachectic mice [1, 3]: the body weight drop eventually reverses for all treated mice; also recorded: reverse body weight drop in cachectic mice
- survival (Kaplan-Meier) [2, 4]: finally ketorolac alone
